Values of other authors, collected in article PMC11511053, “Characterization of Kunitz-Domain Anticoagulation Peptides Derived from Acinetobacter baumannii Exotoxin Protein F6W77” (Toxins, 2024).

Test system: Target
Settings: Table 1, column Ref; ref PN2KPI [25], RVV inhibitor II [40], Simukunin [43], EnKT1 [48], SjKI-1 [22], Schixator [50], SmKI-1 [49], joannsin [44], KPI [45], BF9 [29], Fasxiator [42], Amblyomin-X [27], TAP [46], Bicolin [47]; cited from earlier work
Excerpt: Table 1 Natural Kunitz-type anticoagulant peptides from different organisms. | column: Target

TAP: Kunitz-type anticoagulant peptide from tick (YNRLCIKPRDWIDECDSNEGGERAYFRNGKGGCDSFWICPEDHTGADYYSSYRDCFNACI; UniProt P17726 1-60, looked up)
Target: FXa
